{"source": "patent US8722014B2", "about": "“1 H-[1, 2, 3] triazole substituted amino acids and uses thereof” (Washington University, priority 2009, dated 2014)", "key": {"[1]": {"system": "subcutaneous 9L gliosarcoma tumors", "protocol": "Biodistribution studies were performed with both enantiomers, (R)-[^18F]4 and (S)-[^18F]4, using Fischer 344 rats (Charles River Laboratories, Wilmington Mass., USA) implanted with subcutaneous 9L gliosarcoma tumors. The tumors were implanted by subcutaneous injection of a suspension of approximately 1×10^69L gliosarcoma cells into the flanks of the rats. The tumors were allowed to grow for 3 weeks prior to the study. The rats were allowed food and water ad libitum prior to the biodistribution study. Anesthesia was achieved using a mixture of 1% isoflurane in oxygen, and the radiolabeled amino acid (R)-[^18F]4 or (S)-[^18F]4 was injected intravenously through a tail vein. The animals were euthanized in groups of four for each enantiomer at 5, 30 or 60 minutes after injection. The organs and tissues of interest and the tumors were dissected and weighed, and the amounts of activity were measured and decay corrected to the time of injection with a gamma counter. Standards for the doses were also measured with a gamma counter, and the data were normalized as the percent of total dose per gram of tissue (% ID/g) for each sample. The data were analyzed using GraphPad Prism software with 1-way ANOVAs for each enantiomer at each time point with Bonferroni post-tests. The tumor and brain uptake of radioactivity was directly compared for both enantiomers at each time point with a 2-way ANOVA with Bonferroni post-test. p-values less than or equal to 0.05 were considered statistically significant."}, "[2]": {"system": "subcutaneous 9L gliosarcoma tumor", "protocol": "(§1) MicroPET imaging studies were performed in 2 rats implanted with subcutaneous 9L tumors and 1 rat implanted with an intracranial tumor. The subcutaneous implantations were performed as in the biodistribution studies except that the tumors were allowed to grow for 11 days prior to imaging. The intracranial tumor was implanted in the left midcerebrum using a template method as described previously in La Regina, M. C., et al., Lab. Anim. 34: 265-271, 2000, using a total of 5×10^4 cells suspended in 5 µL total volume. […] Computed axial tomography (CT) images were acquired with a MicroCAT II System (ImTek Inc., Knoxville, Tenn.), and PET data were acquired with MicroPET-FOCUS 120 and 220 scanners (Concorde MicroSystems Knoxville Tenn., USA) for 120 minutes after the intravenous tail vein injection of 0.24 to 0.31 mCi of (S)-[^18F]4. The PET and CT images were fused and analyzed using an Amira software package (Carlsbad Calif., USA), and time-activity curves were generated using ASIPro PET data analysis software (Concorde MicroSystems, Knoxville Tenn., USA)."}, "[3]": {"system": "intracranial 9L gliosarcoma tumor", "protocol": "as §1"}, "[4]": {"details": "post injection, subcutaneous tumor"}, "[5]": {"details": "post injection, intracranial tumor"}}, "note": "Where “and” joins values, the source holds several entries; their conditions need not be identical. Equal entries are not always repeated. Where two headings read alike, the source gives them in different places.", "data": [{"smiles": "Cl.N[C@@H](Cc1cn(CC[18F])nn1)C(=O)O", "note": "[(S)-[^18F]4, (S)-2-amino-3-[1-(2-fluoroethyl)-1H-[1,2,3]triazol-4-yl]propanoic acid hydrochloride salt-[^18F]]", "values": [{"measurement": "biodistribution: blood", "setting": "[1]; 5 min after i.v. injection", "value": "0.98 ± 0.152", "unit": "% ID/g"}, {"measurement": "biodistribution: bone", "setting": "[1]; 5 min after i.v. injection", "value": "0.47 ± 0.065", "unit": "% ID/g"}, {"measurement": "biodistribution: brain", "setting": "[1]; 5 min after i.v. injection", "value": "0.08 ± 0.011", "unit": "% ID/g"}, {"measurement": "biodistribution: fat", "setting": "[1]; 5 min after i.v. injection", "value": "0.09 ± 0.020", "unit": "% ID/g"}, {"measurement": "biodistribution: heart", "setting": "[1]; 5 min after i.v. injection", "value": "0.43 ± 0.048", "unit": "% ID/g"}, {"measurement": "biodistribution: kidney", "setting": "[1]; 5 min after i.v. injection", "value": "11.02 ± 1.224", "unit": "% ID/g"}, {"measurement": "biodistribution: large intestine", "setting": "[1]; 5 min after i.v. injection", "value": "0.14 ± 0.012", "unit": "% ID/g"}, {"measurement": "biodistribution: liver", "setting": "[1]; 5 min after i.v. injection", "value": "0.34 ± 0.035", "unit": "% ID/g"}, {"measurement": "biodistribution: lung", "setting": "[1]; 5 min after i.v. injection", "value": "0.87 ± 0.117", "unit": "% ID/g"}, {"measurement": "biodistribution: muscle", "setting": "[1]; 5 min after i.v. injection", "value": "0.18 ± 0.030", "unit": "% ID/g"}, {"measurement": "biodistribution: pancreas", "setting": "[1]; 5 min after i.v. injection", "value": "2.75 ± 0.634", "unit": "% ID/g"}, {"measurement": "biodistribution: salivary gland", "setting": "[1]; 5 min after i.v. injection", "value": "0.74 ± 0.043", "unit": "% ID/g"}, {"measurement": "biodistribution: small intestine", "setting": "[1]; 5 min after i.v. injection", "value": "0.69 ± 0.076", "unit": "% ID/g"}, {"measurement": "biodistribution: spleen", "setting": "[1]; 5 min after i.v. injection", "value": "0.72 ± 0.054", "unit": "% ID/g"}, {"measurement": "biodistribution: testes", "setting": "[1]; 5 min after i.v. injection", "value": "0.21 ± 0.013", "unit": "% ID/g"}, {"measurement": "biodistribution: thyroid", "setting": "[1]; 5 min after i.v. injection", "value": "0.71 ± 0.117% of total dose per organ"}, {"measurement": "biodistribution: tumor", "setting": "[1]; 5 min after i.v. injection", "value": "0.47 ± 0.069", "unit": "% ID/g"}, {"measurement": "tumor:brain ratio", "setting": "[1]; 5 min after i.v. injection", "value": 5.9}, {"measurement": "tumor bone (femur) ratio", "setting": "[1]; 30 min, biodistribution study", "value": 2.3}, {"measurement": "tumor to muscle ratio", "setting": "[1]; 30 min, biodistribution study", "value": 4.7}, {"measurement": "biodistribution: blood", "setting": "[1]; 30 min after i.v. injection", "value": "0.47 ± 0.101", "unit": "% ID/g"}, {"measurement": "biodistribution: bone", "setting": "[1]; 30 min after i.v. injection", "value": "0.36 ± 0.068", "unit": "% ID/g"}, {"measurement": "biodistribution: brain", "setting": "[1]; 30 min after i.v. injection", "value": "0.06 ± 0.008", "unit": "% ID/g"}, {"measurement": "biodistribution: fat", "setting": "[1]; 30 min after i.v. injection", "value": "0.05 ± 0.010", "unit": "% ID/g"}, {"measurement": "biodistribution: heart", "setting": "[1]; 30 min after i.v. injection", "value": "0.38 ± 0.066", "unit": "% ID/g"}, {"measurement": "biodistribution: kidney", "setting": "[1]; 30 min after i.v. injection", "value": "11.41 ± 1.939", "unit": "% ID/g"}, {"measurement": "biodistribution: large intestine", "setting": "[1]; 30 min after i.v. injection", "value": "0.15 ± 0.028", "unit": "% ID/g"}, {"measurement": "biodistribution: liver", "setting": "[1]; 30 min after i.v. injection", "value": "0.43 ± 0.091", "unit": "% ID/g"}, {"measurement": "biodistribution: lung", "setting": "[1]; 30 min after i.v. injection", "value": "0.83 ± 0.179", "unit": "% ID/g"}, {"measurement": "biodistribution: muscle", "setting": "[1]; 30 min after i.v. injection", "value": "0.18 ± 0.037", "unit": "% ID/g"}, {"measurement": "biodistribution: pancreas", "setting": "[1]; 30 min after i.v. injection", "value": "2.20 ± 0.747", "unit": "% ID/g"}, {"measurement": "biodistribution: salivary gland", "setting": "[1]; 30 min after i.v. injection", "value": "0.66 ± 0.139", "unit": "% ID/g"}, {"measurement": "biodistribution: small intestine", "setting": "[1]; 30 min after i.v. injection", "value": "0.54 ± 0.073", "unit": "% ID/g"}, {"measurement": "biodistribution: spleen", "setting": "[1]; 30 min after i.v. injection", "value": "0.75 ± 0.123", "unit": "% ID/g"}, {"measurement": "biodistribution: testes", "setting": "[1]; 30 min after i.v. injection", "value": "0.17 ± 0.033", "unit": "% ID/g"}, {"measurement": "biodistribution: thyroid", "setting": "[1]; 30 min after i.v. injection", "value": "0.44 ± 0.102% of total dose per organ"}, {"measurement": "biodistribution: tumor", "setting": "[1]; 30 min after i.v. injection", "value": "0.83 % ID/g and 0.83 ± 0.142 % ID/g"}, {"measurement": "tumor:brain ratio", "setting": "[1]; 30 min after i.v. injection", "value": 14.6}, {"measurement": "tumor to lung ratio", "setting": "[1]; 60 min", "value": 1.3}, {"measurement": "tumor to spleen ratio", "setting": "[1]; 60 min", "value": 1.5}, {"measurement": "tumor to normal tissue ratios", "setting": "[1]; 60 min, except in the lung and the spleen", "value": "at least 2"}, {"measurement": "biodistribution: blood", "setting": "[1]; 60 min after i.v. injection", "value": "0.23 ± 0.015", "unit": "% ID/g"}, {"measurement": "biodistribution: bone", "setting": "[1]; 60 min after i.v. injection", "value": "0.23 ± 0.011", "unit": "% ID/g"}, {"measurement": "biodistribution: brain", "setting": "[1]; 60 min after i.v. injection", "value": "0.05 ± 0.001", "unit": "% ID/g"}, {"measurement": "biodistribution: fat", "setting": "[1]; 60 min after i.v. injection", "value": "0.04 ± 0.007", "unit": "% ID/g"}, {"measurement": "biodistribution: heart", "setting": "[1]; 60 min after i.v. injection", "value": "0.30 ± 0.011", "unit": "% ID/g"}, {"measurement": "biodistribution: kidney", "setting": "[1]; 60 min after i.v. injection", "value": "4.79 ± 0.378", "unit": "% ID/g"}, {"measurement": "biodistribution: large intestine", "setting": "[1]; 60 min after i.v. injection", "value": "0.10 ± 0.012", "unit": "% ID/g"}, {"measurement": "biodistribution: liver", "setting": "[1]; 60 min after i.v. injection", "value": "0.32 ± 0.021", "unit": "% ID/g"}, {"measurement": "biodistribution: lung", "setting": "[1]; 60 min after i.v. injection", "value": "0.56 ± 0.085", "unit": "% ID/g"}, {"measurement": "biodistribution: muscle", "setting": "[1]; 60 min after i.v. injection", "value": "0.16 ± 0.006", "unit": "% ID/g"}, {"measurement": "biodistribution: pancreas", "setting": "[1]; 60 min after i.v. injection", "value": "1.12 ± 0.151", "unit": "% ID/g"}, {"measurement": "biodistribution: salivary gland", "setting": "[1]; 60 min after i.v. injection", "value": "0.36 ± 0.037", "unit": "% ID/g"}, {"measurement": "biodistribution: small intestine", "setting": "[1]; 60 min after i.v. injection", "value": "0.31 ± 0.024", "unit": "% ID/g"}, {"measurement": "biodistribution: spleen", "setting": "[1]; 60 min after i.v. injection", "value": "0.47 ± 0.035", "unit": "% ID/g"}, {"measurement": "biodistribution: testes", "setting": "[1]; 60 min after i.v. injection", "value": "0.11 ± 0.006", "unit": "% ID/g"}, {"measurement": "biodistribution: thyroid", "setting": "[1]; 60 min after i.v. injection", "value": "0.30 ± 0.024% of total dose per organ"}, {"measurement": "biodistribution: tumor", "setting": "[1]; 60 min after i.v. injection", "value": "0.72 ± 0.098", "unit": "% ID/g"}, {"measurement": "tumor:brain ratio", "setting": "[1]; 60 min after i.v. injection", "value": 15.2}, {"measurement": "magnitude of tumor uptake compared with the (R)-enantiomer", "setting": "[1]; at all 3 time points, p<0.001", "value": "higher"}, {"measurement": "maximal tumor to brain ratio", "setting": "[1]; biodistribution study", "value": 15}, {"measurement": "tumor to bone (spinal column) ratio", "setting": "[2]; 30 min, MicroPET", "value": 2.5}, {"measurement": "tumor to paraspinal muscle uptake ratio", "setting": "[2]; 30 min, MicroPET", "value": "approximately 5.0"}, {"measurement": "time of peak uptake in adjacent normal tissues", "setting": "[2]; paraspinal muscle and spinal column, post injection", "value": "≤ 5", "unit": "min"}, {"measurement": "time of maximal tumor uptake", "setting": "[2]; [4]", "value": 32.5, "unit": "min"}, {"measurement": "time of near maximal tumor uptake", "setting": "[2]; [4]", "value": "approximately 20 min"}, {"measurement": "maximal standard uptake value (SUV)", "setting": "[2]; subcutaneous 9L tumor", "value": 1.6}, {"measurement": "maximal tumor to brain ratio", "setting": "[3]; MicroPET study", "value": "approximately 9"}, {"measurement": "time of peak uptake in adjacent normal tissues", "setting": "[3]; brain, post injection", "value": "≤ 5", "unit": "min"}, {"measurement": "maximal standard uptake value (SUV)", "setting": "[3]; intracranial tumor", "value": 1.1}, {"measurement": "time of maximal tumor uptake", "setting": "[3]; [5]", "value": 27.5, "unit": "min"}, {"measurement": "time of near maximal tumor uptake", "setting": "[3]; [5]", "value": "approximately 20 min"}]}]}
